The results in this text go back to ChEMBL document CHEMBL4177592, “Discovery of renin inhibitors containing a simple aspartate binding moiety that imparts reduced P450 inhibition” (Bioorg Med Chem Lett, 2017).

One experiment addresses Cytochrome P450 3A4 (Homo sapiens, UniProt P08684). The experiment can be described thus: Inhibition of human CYP3A4 expressed in Escherichia coli co-expressing CYP-reductase using diethoxyfluorescein as substrate measured after 10 mins by fluorescence assay.
The target of experiment [1] is T1, Renin (Homo sapiens, UniProt P00797).
T1 sequence (P00797 whole entry): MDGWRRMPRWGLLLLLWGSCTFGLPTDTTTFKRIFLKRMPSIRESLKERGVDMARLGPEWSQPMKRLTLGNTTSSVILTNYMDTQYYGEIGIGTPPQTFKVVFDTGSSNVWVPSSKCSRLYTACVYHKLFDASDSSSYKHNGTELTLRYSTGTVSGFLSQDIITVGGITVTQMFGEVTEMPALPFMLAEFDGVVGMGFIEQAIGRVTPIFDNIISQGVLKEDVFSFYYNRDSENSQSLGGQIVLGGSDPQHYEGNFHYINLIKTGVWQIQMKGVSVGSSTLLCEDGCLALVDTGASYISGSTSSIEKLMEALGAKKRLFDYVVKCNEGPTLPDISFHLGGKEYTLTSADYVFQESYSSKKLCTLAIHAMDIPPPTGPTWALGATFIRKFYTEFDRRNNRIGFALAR
The experiment can be described thus: Inhibition of trypsin-activated recombinant human Fc-tagged renin expressed in BacMam virus infected HEK-F cells using Arg-Glu-Lys(5-Fam)-Ile-His-Pro-Phe-His-Leu-Val-IleHis-Thr-Lys(5,6 Tamra)-Arg-CONH2 as substrate measured after 2 hrs.

In experiment [2] the target is T1, Renin. Kind of experiment: Inhibition of renin in human plasma using angiotensinogen as substrate measured for 90 mins by [125I]-angiotensin based radioimmunoassay.

Cytochrome P450 3A4, sequence (P08684 whole entry): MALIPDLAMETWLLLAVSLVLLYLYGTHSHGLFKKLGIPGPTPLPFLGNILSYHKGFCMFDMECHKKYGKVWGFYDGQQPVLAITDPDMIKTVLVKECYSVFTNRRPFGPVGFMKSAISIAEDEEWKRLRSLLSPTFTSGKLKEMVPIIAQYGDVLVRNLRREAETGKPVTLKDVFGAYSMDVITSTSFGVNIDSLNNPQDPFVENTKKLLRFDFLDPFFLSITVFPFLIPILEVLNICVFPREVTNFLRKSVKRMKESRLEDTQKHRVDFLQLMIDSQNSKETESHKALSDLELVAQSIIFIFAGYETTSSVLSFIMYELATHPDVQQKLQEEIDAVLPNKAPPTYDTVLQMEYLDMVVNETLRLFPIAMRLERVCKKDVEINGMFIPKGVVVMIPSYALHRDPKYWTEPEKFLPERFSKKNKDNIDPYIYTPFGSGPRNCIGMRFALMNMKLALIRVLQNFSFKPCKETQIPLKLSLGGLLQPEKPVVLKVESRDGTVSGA

Turning to `CCc1cccc(-c2c(F)cccc2C(O)(CCCNC(=O)OC)[C@@H]2CCCN(C(=O)[C@@H]3CC[C@H](N)C3)C2)c1` (some centres undefined), the IC50 against Cytochrome P450 3A4 amounted to 90 nM; on Renin [1], 0.6 nM; at Renin [2] it was 3.3 nM.
Turning to `CCc1cccc(-c2c(F)cccc2C(O)(CCCNC(=O)OC)[C@@H]2CCCN(C(=O)CCCNCCO)C2)c1` (some centres undefined), the figures for the IC50 at Renin [1] and against Renin [2] were 2.5 nM and 63 nM, respectively.
Consider `CCc1cccc(-c2c(F)cccc2C(O)(CCCNC(=O)OC)[C@@H]2CCCN(C(=O)CCC3CCNCC3)C2)c1` (some centres undefined), for which the IC50 on Renin [1] was 80 nM.
Turning to `CCc1cccc(-c2c(F)cccc2C(O)(CCCNC(=O)OC)[C@@H]2CCCN(C(=O)CCN)C2)c1` (some centres undefined), at Renin [1], the IC50 was determined as 100 nM.
As to `CCc1cccc(-c2c(F)cccc2C(O)(CCCNC(=O)OC)[C@@H]2CCCN(C(=O)CC3CNCCO3)C2)c1` (some centres undefined), the results for the IC50 on Renin [1] and against Renin [2] were 1.6 nM and 24 nM, respectively.
Regarding `CCc1cccc(-c2c(F)cccc2C(O)(CCCNC(=O)OC)[C@@H]2CCCN(C(=O)CC3CCNCC3)C2)c1` (some centres undefined), the 50% inhibitory concentration (IC50) at Renin [1] came out at 1.6 nM; on Renin [2], 23 nM.
Regarding `CCc1cccc(-c2c(F)cccc2C(O)(CCCNC(=O)OC)[C@@H]2CCCN(C(=O)CC[C@H](N)C(N)=O)C2)c1` (some centres undefined), on Renin [1], the IC50 amounted to 630 nM.
For `CCc1cccc(-c2c(F)cccc2C(O)(CCCNC(=O)OC)[C@@H]2CCCN(C(=O)CCCN(C)C)C2)c1` (some centres undefined), at Renin [1], the IC50 was 630 nM.
Consider `CCc1cccc(-c2c(F)cccc2C(O)(CCCNC(=O)OC)[C@@H]2CCCN(C(=O)C3CCCNC3)C2)c1` (some centres undefined), for which, at Renin [1], the IC50 stood at 320 nM.
Take `CCc1cccc(-c2c(F)cccc2C(O)(CCCNC(=O)OC)[C@@H]2CCCN(C(=O)CC[C@H](N)CO)C2)c1` (some centres undefined): the IC50 on Renin [1] amounted to 20 nM; on Renin [2], 460 nM.
Turning to `CCc1cccc(-c2c(Cl)cccc2C(O)(CCCNC(=O)OC)[C@@H]2CCCN(C(=O)[C@@H]3CC[C@H](NC)C3)C2)c1` (some centres undefined), the IC50 was determined as 49 nM against Cytochrome P450 3A4, 0.6 nM at Renin [1] and 4.3 nM on Renin [2].
Turning to `CCc1cccc(-c2c(F)cccc2C(O)(CCCNC(=O)OC)[C@@H]2CCCN(C(=O)CC3CCCNC3)C2)c1` (some centres undefined), the IC50 at Renin [1] came to 2 nM; on Renin [2], 40 nM.
For `CCc1cccc(-c2c(F)cccc2C(O)(CCCNC(=O)OC)[C@@H]2CCCN(C(=O)CC[C@@H](N)CO)C2)c1` (some centres undefined), in that order: 6.3 nM and 180 nM.
As to `CCc1cccc(-c2c(F)cccc2C(O)(CCCNC(=O)OC)[C@@H]2CCCN(C(=O)C3CCCCN3)C2)c1` (some centres undefined), the IC50 on Renin [1] worked out at 2000 nM.
Consider `CCc1cccc(-c2c(F)cccc2C(O)(CCCNC(=O)OC)[C@@H]2CCCN(C(=O)C3CCNCC3)C2)c1` (some centres undefined), for which the IC50 at Renin [1] is 6.3 nM; against Renin [2], 102 nM.
Take `CCc1cccc(-c2c(F)cccc2C(O)(CCCNC(=O)OC)[C@@H]2CCCN(C(=O)CCC3CCCCN3)C2)c1` (some centres undefined): the IC50 at Renin [1] was found to be 126 nM.
For `CCc1cccc(-c2c(F)cccc2C(O)(CCCNC(=O)OC)[C@@H]2CCCN(C(=O)CC(O)CNC)C2)c1` (some centres undefined), the results for the IC50 against Cytochrome P450 3A4, on Renin [1] and on Renin [2] were 840 nM, 2 nM and 29 nM, respectively.
As to `CCc1cccc(-c2c(Cl)cccc2C(O)(CCCNC(=O)OC)[C@@H]2CCCN(C(=O)CCCNC)C2)c1` (some centres undefined), the half-inhibitory concentration (IC50) was 140 nM against Cytochrome P450 3A4, 1 nM on Renin [1] and 16 nM at Renin [2].
In the case of `CCc1cccc(-c2c(F)cccc2C(O)(CCCNC(=O)OC)[C@@H]2CCCN(C(=O)CC[C@H](N)C(=O)OC)C2)c1` (some centres undefined), the IC50 stood at 25 nM on Renin [1] and 540 nM at Renin [2].
For `CCc1cccc(-c2c(F)cccc2C(O)(CCCNC(=O)OC)[C@@H]2CCCN(C(=O)CCCCN)C2)c1` (some centres undefined), the IC50 at Renin [1] stood at 2 nM; on Renin [2], 120 nM.
On to `CCc1cccc(-c2c(F)cccc2C(O)(CCCNC(=O)OC)[C@@H]2CCCN(C(=O)CCCN)C2)c1` (some centres undefined), for which the IC50 against Cytochrome P450 3A4 came out at 240 nM; at Renin [1], 1 nM; against Renin [2], 13 nM.
Turning to `CCc1cccc(-c2c(F)cccc2C(O)(CCCNC(=O)OC)[C@@H]2CCCN(C(=O)CC(CNC)OC)C2)c1` (some centres undefined), the IC50 on Renin [1] was 5 nM; against Renin [2], 50 nM.
For the compound `CCc1cccc(-c2c(F)cccc2C(O)(CCCNC(=O)OC)[C@@H]2CCCN(C(=O)C[C@H](O)CN)C2)c1` (some centres undefined), the IC50 at Renin [1] turned out to be 1.3 nM.
Consider `CCc1cccc(-c2c(F)cccc2C(O)(CCCNC(=O)OC)[C@@H]2CCCN(C(=O)C3CCNC3)C2)c1` (some centres undefined), for which the values for the half-maximal inhibitory concentration (IC50) at Renin [1] and against Renin [2] were 25 nM and 540 nM, respectively.
`CCc1cccc(-c2c(F)cccc2C(O)(CCCNC(=O)OC)[C@@H]2CCCN(C(=O)NCCN)C2)c1` (some centres undefined): the IC50 turned out to be 3.2 nM on Renin [1] and 150 nM at Renin [2].
For `CCc1cccc(-c2c(F)cccc2C(O)(CCCNC(=O)OC)[C@@H]2CCCN(C(=O)CN)C2)c1` (some centres undefined), in that order: 63 nM and 3800 nM.
Take `CCc1cccc(-c2c(F)cccc2C(O)(CCCNC(=O)OC)[C@@H]2CCCN(C(=O)CC[C@H](N)C(=O)O)C2)c1` (some centres undefined): the IC50 on Renin [1] was 320 nM.
Regarding `CCc1cccc(-c2c(F)cccc2C(O)(CCCNC(=O)OC)[C@@H]2CCCN(C(=O)[C@@H](O)CCN)C2)c1` (some centres undefined), the IC50 is 40 nM at Renin [1] and 840 nM against Renin [2].
As to `CCc1cccc(-c2c(F)cccc2C(O)(CCCNC(=O)OC)[C@@H]2CCCN(C(=O)CCCCCN)C2)c1` (some centres undefined), the IC50 worked out at 3.2 nM at Renin [1] and 100 nM at Renin [2].
As for `CCc1cccc(-c2c(F)cccc2C(O)(CCCNC(=O)OC)[C@@H]2CCCN(C(=O)NCCNC)C2)c1` (some centres undefined), the IC50 on Renin [1] turned out to be 6.3 nM; against Renin [2] it was 120 nM.
For `CCc1cccc(-c2c(F)cccc2C(O)(CCCNC(=O)OC)[C@@H]2CCCN(C(=O)CC[C@H](N)C(=O)OCc3ccccc3)C2)c1` (some centres undefined), in that order: 16 nM and 450 nM.
As for `CCc1cccc(-c2c(Cl)cccc2C(O)(CCCNC(=O)OC)[C@@H]2CCCN(C(=O)[C@@H]3CC[C@H](N)C3)C2)c1` (some centres undefined), the values for the IC50 on Cytochrome P450 3A4, at Renin [1] and against Renin [2] were 34 nM, 3.1 nM and 8.4 nM, respectively.
As to `CCc1cccc(-c2c(F)cccc2C(O)(CCCNC(=O)OC)[C@@H]2CCCN(C(=O)CC(O)CN)C2)c1` (some centres undefined), the IC50 at Cytochrome P450 3A4 is 440 nM; on Renin [1] it was 2 nM; on Renin [2] it was 36 nM.
For `CCc1cccc(-c2c(F)cccc2C(O)(CCCNC(=O)OC)[C@@H]2CCCN(C(=O)CC3CCCN3)C2)c1` (some centres undefined), the IC50 on Renin [1] is 800 nM.
Regarding `CCc1cccc(-c2c(F)cccc2C(O)(CCCNC(=O)OC)[C@@H]2CCCN(C(=O)C3CNCCO3)C2)c1` (some centres undefined), the IC50 at Renin [1] turned out to be 1000 nM.
`CCc1cccc(-c2c(Cl)cccc2C(O)(CCCNC(=O)OC)[C@@H]2CCCN(C(=O)[C@H]3C[C@@H](N)[C@@H](O)C3)C2)c1` (some centres undefined): the figures for the IC50 against Cytochrome P450 3A4, at Renin [1] and against Renin [2] were 250 nM, 0.3 nM and 1.8 nM, respectively.

The IC50 is the concentration that inhibits the measured activity by half.
